Source: PMC8624998, “Synthesis and Antiproliferative Evaluation of 3-Chloroazetidin-2-ones with Antimitotic Activity: Heterocyclic Bridged Analogues of Combretastatin A-4” (Pharmaceuticals, 2021)
Read-outs that look alike come from different tables or passages of the source.

How the values were obtained:
MCF-7 cells = assay: Cell viability assay (MTT/AlamarBlue), antiproliferative activity; format: cell-based, human; settings: read-out: IC50 (MCF-7, 72 h)
In short: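 MCF-7 cells seeded, left 24 h at 37 °C, then exposed 72 h to compound (1 nM–200 μM, or 0.001–100 μM) in ethanol or DMSO vehicle (≤1% ethanol, 0.1% DMSO). Viability read by MTT (1 mg/mL final, 3 h) or AlamarBlue (10% v/v, 3–5 h), relative to untreated controls as 100%.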

HL-60 cells = assay: Cell viability assay, antiproliferative activity; format: cell-based
Experimental: (§1) […]. The corresponding values for 10e in these cell lines were 161 nM (HL-60), 55 nM (SW480) and 135 nM (HT-29). […] […]. SW480 colon cells expressed low levels of the UDP-glucuronosyltransferase (UGT) protein compared to expression levels in HT-29 cells. […] […].
(§2) The human breast carcinoma cell line MCF-7 was purchased from the European Collection of Animal Cell Cultures (ECACC). Triple negative breast cancer Hs578T cells and its invasive variant Hs578Ts(i)8 were a kind gift from Dr. Susan McDonnell, School of Chemical and Bioprocess Engineering, University College Dublin. U266 cells were a gift from Dr. Tony McElligott, School of Medicine, St James’s Hospital, Trinity College Dublin. HT-29 cells were purchased from the European Collection of Cell Cultures (originating from a human adenocarcinoma of the colon). The human breast carcinoma cell line MDA-MB-231 and the HL-60 cells derived from a patient with acute myeloid leukaemia were both obtained from ECACC (Salisbury, UK). The SW-480 cells were a kind gift from Dr. Brian Flood, School of Biochemistry and Immunology, Trinity College Dublin. HEK-293T (normal epithelial embryonic kidney cells) were cultured in Dulbecco’s Modified Eagle’s Medium (DMEM) with GlutaMAXTM-I in the absence of non-essential amino acids. Human breast cancer MCF-7 cells and multiple myeloma U266 cells were cultured in Minimum Essential Media (MEM) with GlutaMAX™-I, supplemented with 1% (v/v) non-essential amino acids, 10% 2(v/v) foetal bovine serum (FBS) and 1% (v/v) penicillin/streptomycin 5000 U/mL. MDA-MB-231 cells were maintained in DMEM supplemented with 10% (v/v) foetal bovine serum, 2 mM L-glutamine and 100 μg/mL penicillin/streptomycin (complete medium). Colon cancer HT-29 and SW-480 and triple negative breast cancer Hs578T and its invasive variant Hs578T8i were cultured in DMEM with GlutaMAX™-I, with the same supplement in the absence of non-essential amino acids. Leukaemia HL-60 cancer cells were cultured in Roswell Park Memorial Institute Media (RPMI-1640) with GlutaMAX™-I, supplemented with 10% FCS media, and 100 μg/mL penicillin/streptomycin as above. Cell numbers were monitored using a haemocytometer. Cell culture flasks were incubated in a humidified incubator (5% CO2/95% air) at 37 °C. All cell lines were sub-cultured three times per week with trypsinisation using TrypLE Express (1X) required for adherent cell lines.
(§3) . All stock solutions and serial dilution in ethanol/DMSO were stored at -20 °C. All cells were seeded at a density of 2.5 × 10^4 cells/mL in a 96-well plate (200 μL per well). The cells were incubated in a […] atmosphere at 37 °C for 24 h, then treated with test compound (2 μL of stock solutions per 200-microlitre well) in ethanol to obtain a concentration range of 1 nM–200 μM for the study. The plates were then re-incubated for a further 72 h. Control wells contained an equivalent volume of the vehicle ethanol or DMSO (1% v/v). MTT cell viability assay: The culture medium was removed, and the cells were washed with phosphate buffered saline (PBS, […]). MTT (dissolved in PBS, […]) was added to obtain a final concentration of MTT (1 mg/mL). Cells were incubated at 37 °C for 3 h in the dark. Solubilisation was commenced by the addition of DMSO ([…]) and the cells were maintained at 20 °C in the dark for 20 min before reading the absorbance to ensure complete colour diffusion. The absorbance value of control cells (no added compound) was set to 100% cell viability and absorbance versus cell density per well was determined to assess cell viability using Graph-Pad Prism software. AlamarBlue cell viability assay: Cells were seeded in 96-well plates (e.g., MCF-7, 5 × 10^3 cells/well) and (HT-29 cells, 1 × 10^3 cells/well) and (HL-60 cells, 1 × 10^4 cells/well) with a total volume per well of 200 µL. After 24 h, cells were treated in triplicate with serial dilutions of CA-4 or β-lactam analogues (0.001–100 μM), medium alone or vehicle (1% ethanol (v/v)). […]

HT-29 cells = assay: Cell viability assay, antiproliferative activity; format: cell-based
Experimental: as §1, §2, §3

SW480 cells = assay: Cell viability assay, antiproliferative activity; format: cell-based, human
Experimental: as §1, §2, §3

NCI-H23 = assay: NCI-60 5 dose screen, NSC Lung Cancer; format: cell-based; settings: Homo sapiens
NCI-H460 = assay: NCI-60 5 dose screen, NSC Lung Cancer; format: cell-based; settings: Homo sapiens
HCT-116 = assay: NCI-60 5 dose screen, Colon Cancer; format: cell-based; settings: Homo sapiens
HCT-15 = assay: NCI-60 5 dose screen, Colon Cancer; format: cell-based; settings: Homo sapiens
SNB-19 = assay: NCI-60 5 dose screen, CNS Cancer; format: cell-based; settings: Homo sapiens
SNB-75 = assay: NCI-60 5 dose screen, CNS Cancer; format: cell-based; settings: Homo sapiens
SK-MEL-2 = assay: NCI-60 5 dose screen, Melanoma; format: cell-based; settings: Homo sapiens
A498 = assay: NCI-60 5 dose screen, Renal Cancer; format: cell-based; settings: Homo sapiens
MDA-MB-468 = assay: NCI-60 5 dose screen, Breast Cancer; format: cell-based; settings: Homo sapiens
[1] = Homo sapiens, MCF7, 72 h, MCF-7, 72 h
[2] = Homo sapiens, HL-60, 72 h; read-out: HL-60 IC50
[3] = Homo sapiens, HT-29, 72 h; read-out: HT-29 IC50
[4] = Homo sapiens, SW480, 72 h; read-out: SW480 IC50

Row | Compound | IC50 (MCF-7 cells; [1]) [nM] | IC50 (HL-60 cells; [2]) [nM] | IC50 (HT-29 cells; [3]) [nM] | IC50 (SW480 cells; [4]) [nM] | GI50 (NCI-H23; read-out: GI50) [nM] | GI50 (NCI-H460; read-out: GI50) [nM] | GI50 (HCT-116; read-out: GI50) [nM] | GI50 (HCT-15; read-out: GI50) [nM] | GI50 (SNB-19; read-out: GI50) [nM] | GI50 (SNB-75; read-out: GI50) [nM] | GI50 (SK-MEL-2; read-out: GI50) [nM] | GI50 (A498; read-out: GI50) [nM] | GI50 (MDA-MB-468; read-out: GI50) [nM] | IC50 (MCF-7 cells; MCF-7, 72 h) [nM] | further results
1 | COc1ccc([C@H]2[C@H](Cl)C(=O)N2c2cc(OC)c(OC)c(OC)c2)cc1 (relative stereo) [Compound 10e trans, Trans-3-chloro-1-(3,4,5-trimethoxyphenyl)-4-(4-methoxyphenyl) azetidin-2-one] | 56 ± 7 | 161 ± 20 | 135 ± 60 | 55 ± 4 | 31.2 | 306 | 39.7 | 50.4 | 74.6 | 38.2 | 45 | 27.1 | 50.8 |  | 
2 | COc1ccc(/C=C\c2cc(OC)c(OC)c(OC)c2)cc1O [CA-4, Combretastatin A-4] | 3.9 | 1.9 ± 0.5 |  | 3 ± 0.8 |  |  |  |  |  |  |  |  |  | 4 | IC50 (HL-60 cells; Homo sapiens, HL-60; read-out: HL-60 IC50): 2 nM; IC50 (HT-29 cells; Homo sapiens, HT-29; read-out: HT-29 IC50): 4160 nM
3 | COc1ccc(C2C(Cl)C(=O)N2c2cc(OC)c(OC)c(OC)c2)cc1O (centres unmarked) [Compound 10n, 3-Chloro-4-(3-hydroxy-4-methoxy-phenyl)-1-(3,4,5-trimethoxyphenyl)azetidin-2-one] | 17.5 ± 9 | 10 ± 8 | 631 ± 30 | 37 ± 5 |  |  |  |  |  |  |  |  |  | 17 ± 9 | 
4 | COc1ccc(C2N(c3cc(OC)c(OC)c(OC)c3)C(=O)C2(Cl)Cl)cc1O (centres unmarked) [Compound 11n, 3,3-Dichloro-4-(3-hydroxy-4-methoxyphenyl)-1-(3,4,5-trimethoxyphenyl)azetidin-2-one] |  |  |  |  |  |  |  |  |  |  |  |  |  |  | IC50 (MCF-7 cells; Homo sapiens, MCF7, 72 h): 31 ± 4 nM; IC50 (HL-60 cells; Homo sapiens, HL-60, 72 h, read-out: HL-60 IC50): 16 ± 5 nM; IC50 (HT-29 cells; Homo sapiens, HT-29, 72 h, read-out: HT-29 IC50): 941 ± 60 nM; IC50 (SW480 cells; Homo sapiens, SW480, 72 h, read-out: SW480 IC50): 44 ± 8 nM; GI50 (NCI-H23): 24.2 nM; GI50 (NCI-H460): 35.4 nM; GI50 (HCT-116): 32.8 nM; GI50 (HCT-15): 38.3 nM; GI50 (SNB-19): 45.7 nM; GI50 (SNB-75): 19.9 nM; GI50 (SK-MEL-2): 31.6 nM; GI50 (A498): 22.6 nM; GI50 (MDA-MB-468): 22.6 nM
5 | CCSc1ccc(C2C(Br)C(=O)N2c2cc(OC)c(OC)c(OC)c2)cc1 (centres unmarked) [Compound 16d, 3-Bromo-4-(4-(ethylthio)phenyl)-1-(3,4,5-trimethoxyphenyl)azetidin-2-one] | 1100 ± 100 |  |  |  | 478 | 539 | 222 | 210 | 440 | 509 | 484 | 103 | 154 |  | 
